Measured values published in ChEMBL document CHEMBL5696442, “Discovery of type II inhibitors of TGFβ-activated kinase 1 (TAK1) and mitogen-activated protein kinase kinase kinase kinase 2 (MAP4K2)” (J Med Chem, 2015).
The source made the active and inactive calls. No cut-off for these calls is given here.

Legend:
[1] = target: T1, Serine/threonine-protein kinase TBK1 (Homo sapiens) (UniProt Q9UHD2); assay: Inhibition of TBK1 Lys2 labeling site in human Huh-7 cell lysate at 1 uM by KiNativ Profiling analysis relative to control; assay type: subcellular
T1 sequence (whole entry): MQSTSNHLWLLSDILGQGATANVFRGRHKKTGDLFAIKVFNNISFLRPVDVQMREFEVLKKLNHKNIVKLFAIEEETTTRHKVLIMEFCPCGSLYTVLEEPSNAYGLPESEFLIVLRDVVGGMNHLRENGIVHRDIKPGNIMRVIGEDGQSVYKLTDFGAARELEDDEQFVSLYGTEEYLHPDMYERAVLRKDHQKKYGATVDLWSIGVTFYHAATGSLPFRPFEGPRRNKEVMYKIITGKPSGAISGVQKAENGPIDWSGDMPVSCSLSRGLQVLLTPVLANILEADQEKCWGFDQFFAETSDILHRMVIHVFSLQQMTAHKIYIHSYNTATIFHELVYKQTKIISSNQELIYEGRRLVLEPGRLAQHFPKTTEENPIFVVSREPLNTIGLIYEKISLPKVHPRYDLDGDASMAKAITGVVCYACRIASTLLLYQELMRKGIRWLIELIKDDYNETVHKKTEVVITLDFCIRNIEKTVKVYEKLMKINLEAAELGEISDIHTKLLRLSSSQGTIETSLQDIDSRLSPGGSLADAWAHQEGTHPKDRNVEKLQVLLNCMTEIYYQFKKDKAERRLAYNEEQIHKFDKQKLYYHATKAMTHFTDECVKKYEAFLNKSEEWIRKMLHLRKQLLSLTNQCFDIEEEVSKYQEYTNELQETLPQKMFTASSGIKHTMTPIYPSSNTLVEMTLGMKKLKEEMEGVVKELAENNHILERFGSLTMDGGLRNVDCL

[2] = target: T2, Dual specificity mitogen-activated protein kinase kinase 4 (Homo sapiens) (UniProt P45985); assay: Inhibition of MAP2K4 ACT labeling site in human Huh-7 cell lysate at 1 uM by KiNativ Profiling analysis relative to control; assay type: subcellular
T2 sequence (whole entry): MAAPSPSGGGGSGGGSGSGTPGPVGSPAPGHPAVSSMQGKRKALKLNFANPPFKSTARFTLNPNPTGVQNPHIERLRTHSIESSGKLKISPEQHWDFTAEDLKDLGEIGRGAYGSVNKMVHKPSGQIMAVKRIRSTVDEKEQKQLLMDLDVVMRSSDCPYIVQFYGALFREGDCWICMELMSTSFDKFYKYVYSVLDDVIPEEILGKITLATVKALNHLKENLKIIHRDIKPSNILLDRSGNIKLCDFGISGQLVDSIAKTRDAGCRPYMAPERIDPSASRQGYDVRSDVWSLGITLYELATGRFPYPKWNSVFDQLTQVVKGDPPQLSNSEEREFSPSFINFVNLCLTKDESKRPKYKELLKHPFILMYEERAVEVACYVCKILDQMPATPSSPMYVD

[3] = target: Ribosomal protein S6 kinase alpha-3 (Homo sapiens) (UniProt P51812); assay: Inhibition of RSK2 domain2 Lys2 labeling site harbouring DLKPSNILYVDESGNPESIR in human Huh-7 cells at 1 uM by KiNativ Profiling analysis relative to control; assay type: cell-based
[4] = target: Tyrosine-protein kinase Lck (Homo sapiens) (UniProt P06239); assay: Inhibition of LCK (unknown origin) at 1 uM by Ambit Kinomescan binding assay relative to control
[5] = target: DNA-PK/Ku70/Ku85 (Homo sapiens) (UniProt P78527+P12956+P13010); assay: Inhibition of DNAPK ATP labeling site harbouring GHDEREHPFLVKGGEDLR in human A-375 cells at 0.05 uM by KiNativ Profiling analysis relative to control; assay type: cell-based
[6] = target: Serine/threonine-protein kinase 17B (Homo sapiens) (UniProt O94768); assay: Inhibition of DRAK2 (unknown origin) at 1 uM by Ambit Kinomescan binding assay relative to control; values are per cent of control
[7] = target: T3, Aurora kinase A (Homo sapiens) (UniProt O14965); assay: Inhibition of AURKA (unknown origin) at 10 uM by Ambit Kinomescan binding assay
T3 sequence (whole entry): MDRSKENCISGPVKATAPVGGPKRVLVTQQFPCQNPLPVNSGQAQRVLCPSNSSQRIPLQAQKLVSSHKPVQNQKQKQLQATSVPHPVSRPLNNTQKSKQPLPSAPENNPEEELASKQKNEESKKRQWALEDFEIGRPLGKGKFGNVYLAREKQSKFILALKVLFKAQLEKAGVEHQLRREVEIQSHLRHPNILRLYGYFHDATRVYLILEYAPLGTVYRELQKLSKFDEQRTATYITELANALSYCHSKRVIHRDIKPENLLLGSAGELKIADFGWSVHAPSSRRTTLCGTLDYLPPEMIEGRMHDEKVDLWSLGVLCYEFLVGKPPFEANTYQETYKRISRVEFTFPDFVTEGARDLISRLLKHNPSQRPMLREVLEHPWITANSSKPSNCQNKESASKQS

[8] = target: Serine/threonine-protein kinase 17A (Homo sapiens) (UniProt Q9UEE5); assay: Inhibition of DRAK1 (unknown origin) at 10 uM by Ambit Kinomescan binding assay
[9] = target: MAP kinase-interacting serine/threonine-protein kinase 1 (Homo sapiens) (UniProt Q9BUB5); assay: Inhibition of MKNK1 (unknown origin) at 10 uM by Ambit Kinomescan binding assay
[10] = target: Phosphatidylinositol 4-phosphate 3-kinase C2 domain-containing subunit beta (Homo sapiens) (UniProt O00750); assay: Inhibition of PIK3C2B (unknown origin) at 10 uM by Ambit Kinomescan binding assay
[11] = target: Peripheral plasma membrane protein CASK (Homo sapiens) (UniProt O14936); assay: Inhibition of CASK Lys1 labeling site in human A-375 cells at 0.5 uM by KiNativ Profiling analysis relative to control
Sequence of Peripheral plasma membrane protein CASK (Homo sapiens) (O14936 whole entry, looked up): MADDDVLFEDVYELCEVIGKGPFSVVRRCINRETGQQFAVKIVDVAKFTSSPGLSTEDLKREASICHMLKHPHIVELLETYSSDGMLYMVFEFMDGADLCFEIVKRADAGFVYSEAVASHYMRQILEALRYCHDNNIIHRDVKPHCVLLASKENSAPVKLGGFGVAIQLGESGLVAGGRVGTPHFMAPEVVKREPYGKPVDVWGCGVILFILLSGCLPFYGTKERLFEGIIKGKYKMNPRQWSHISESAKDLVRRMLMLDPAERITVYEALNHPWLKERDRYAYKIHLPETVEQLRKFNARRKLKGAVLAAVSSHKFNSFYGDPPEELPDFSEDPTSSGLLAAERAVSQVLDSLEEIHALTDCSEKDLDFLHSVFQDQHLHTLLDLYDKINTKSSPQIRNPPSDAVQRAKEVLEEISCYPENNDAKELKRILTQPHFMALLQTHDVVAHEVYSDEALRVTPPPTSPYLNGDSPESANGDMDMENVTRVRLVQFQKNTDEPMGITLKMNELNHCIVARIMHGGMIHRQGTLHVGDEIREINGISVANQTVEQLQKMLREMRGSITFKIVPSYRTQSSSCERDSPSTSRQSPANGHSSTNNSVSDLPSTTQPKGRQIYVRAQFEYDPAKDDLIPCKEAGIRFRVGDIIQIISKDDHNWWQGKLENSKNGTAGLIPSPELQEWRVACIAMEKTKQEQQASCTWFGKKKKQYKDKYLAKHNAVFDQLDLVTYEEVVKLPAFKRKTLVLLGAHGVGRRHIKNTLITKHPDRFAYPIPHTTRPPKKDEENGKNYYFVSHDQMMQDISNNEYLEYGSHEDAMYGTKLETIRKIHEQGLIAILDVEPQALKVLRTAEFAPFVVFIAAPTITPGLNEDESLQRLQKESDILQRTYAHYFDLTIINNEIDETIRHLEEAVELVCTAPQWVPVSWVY

Sequence of Phosphatidylinositol 4-phosphate 3-kinase C2 domain-containing subunit beta (Homo sapiens) (O00750 whole entry, the tested form may be a part): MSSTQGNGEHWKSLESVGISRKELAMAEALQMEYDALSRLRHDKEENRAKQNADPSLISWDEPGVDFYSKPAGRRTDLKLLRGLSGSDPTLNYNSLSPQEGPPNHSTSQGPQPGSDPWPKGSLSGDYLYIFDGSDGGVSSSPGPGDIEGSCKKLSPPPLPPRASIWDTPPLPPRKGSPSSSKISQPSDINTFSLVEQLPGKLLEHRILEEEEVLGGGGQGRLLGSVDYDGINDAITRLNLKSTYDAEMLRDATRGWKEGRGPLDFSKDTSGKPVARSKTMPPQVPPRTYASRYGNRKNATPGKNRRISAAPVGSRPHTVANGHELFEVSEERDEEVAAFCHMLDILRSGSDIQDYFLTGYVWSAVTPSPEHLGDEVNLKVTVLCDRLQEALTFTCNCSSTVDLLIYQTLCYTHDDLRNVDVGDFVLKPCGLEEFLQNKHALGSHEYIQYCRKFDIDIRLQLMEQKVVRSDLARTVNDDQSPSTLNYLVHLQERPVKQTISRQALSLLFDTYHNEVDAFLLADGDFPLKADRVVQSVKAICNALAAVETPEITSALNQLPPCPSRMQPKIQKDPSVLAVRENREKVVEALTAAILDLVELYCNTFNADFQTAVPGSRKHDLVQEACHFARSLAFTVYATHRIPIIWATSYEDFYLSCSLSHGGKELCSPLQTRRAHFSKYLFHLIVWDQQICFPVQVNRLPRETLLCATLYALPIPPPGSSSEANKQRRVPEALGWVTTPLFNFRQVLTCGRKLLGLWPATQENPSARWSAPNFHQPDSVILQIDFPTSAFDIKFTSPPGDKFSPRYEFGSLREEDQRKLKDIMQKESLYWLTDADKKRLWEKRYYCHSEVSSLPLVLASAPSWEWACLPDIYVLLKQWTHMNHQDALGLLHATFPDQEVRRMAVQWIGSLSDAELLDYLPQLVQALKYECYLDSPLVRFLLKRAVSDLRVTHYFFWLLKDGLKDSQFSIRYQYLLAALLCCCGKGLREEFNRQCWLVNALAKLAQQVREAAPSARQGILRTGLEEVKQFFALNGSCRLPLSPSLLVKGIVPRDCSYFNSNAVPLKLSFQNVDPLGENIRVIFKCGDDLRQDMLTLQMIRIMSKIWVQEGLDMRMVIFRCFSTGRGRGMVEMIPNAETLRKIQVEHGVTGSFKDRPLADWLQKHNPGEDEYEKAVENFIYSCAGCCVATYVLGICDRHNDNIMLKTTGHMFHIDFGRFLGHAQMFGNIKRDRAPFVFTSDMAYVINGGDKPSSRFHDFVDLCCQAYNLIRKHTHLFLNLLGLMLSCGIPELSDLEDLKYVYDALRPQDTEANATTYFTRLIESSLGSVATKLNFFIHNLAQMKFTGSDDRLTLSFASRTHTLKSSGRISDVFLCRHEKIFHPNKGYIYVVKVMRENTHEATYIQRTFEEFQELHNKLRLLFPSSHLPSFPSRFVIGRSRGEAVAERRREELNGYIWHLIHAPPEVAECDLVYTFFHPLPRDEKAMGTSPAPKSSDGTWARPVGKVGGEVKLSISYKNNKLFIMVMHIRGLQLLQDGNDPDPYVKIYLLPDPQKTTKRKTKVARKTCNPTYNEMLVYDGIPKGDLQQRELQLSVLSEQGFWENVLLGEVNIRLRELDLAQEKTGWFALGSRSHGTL
Sequence of Tyrosine-protein kinase Lck (Homo sapiens) (P06239 2-509 limits assumed): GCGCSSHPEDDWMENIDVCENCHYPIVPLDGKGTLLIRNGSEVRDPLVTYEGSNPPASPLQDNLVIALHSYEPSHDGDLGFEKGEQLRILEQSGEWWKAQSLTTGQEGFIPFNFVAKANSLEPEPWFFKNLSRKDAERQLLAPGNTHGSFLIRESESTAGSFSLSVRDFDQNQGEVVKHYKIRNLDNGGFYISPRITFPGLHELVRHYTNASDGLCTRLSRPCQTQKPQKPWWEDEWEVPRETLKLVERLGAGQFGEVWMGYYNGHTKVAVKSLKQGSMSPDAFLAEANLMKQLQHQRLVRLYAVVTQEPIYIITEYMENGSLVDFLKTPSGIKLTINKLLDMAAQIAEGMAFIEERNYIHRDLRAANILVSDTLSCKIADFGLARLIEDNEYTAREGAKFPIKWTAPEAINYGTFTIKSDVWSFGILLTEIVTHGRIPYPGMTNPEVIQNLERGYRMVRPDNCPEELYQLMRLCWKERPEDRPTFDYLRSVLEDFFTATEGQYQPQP
Sequence of Ribosomal protein S6 kinase alpha-3 (Homo sapiens) (P51812 whole entry, the tested form may be a part): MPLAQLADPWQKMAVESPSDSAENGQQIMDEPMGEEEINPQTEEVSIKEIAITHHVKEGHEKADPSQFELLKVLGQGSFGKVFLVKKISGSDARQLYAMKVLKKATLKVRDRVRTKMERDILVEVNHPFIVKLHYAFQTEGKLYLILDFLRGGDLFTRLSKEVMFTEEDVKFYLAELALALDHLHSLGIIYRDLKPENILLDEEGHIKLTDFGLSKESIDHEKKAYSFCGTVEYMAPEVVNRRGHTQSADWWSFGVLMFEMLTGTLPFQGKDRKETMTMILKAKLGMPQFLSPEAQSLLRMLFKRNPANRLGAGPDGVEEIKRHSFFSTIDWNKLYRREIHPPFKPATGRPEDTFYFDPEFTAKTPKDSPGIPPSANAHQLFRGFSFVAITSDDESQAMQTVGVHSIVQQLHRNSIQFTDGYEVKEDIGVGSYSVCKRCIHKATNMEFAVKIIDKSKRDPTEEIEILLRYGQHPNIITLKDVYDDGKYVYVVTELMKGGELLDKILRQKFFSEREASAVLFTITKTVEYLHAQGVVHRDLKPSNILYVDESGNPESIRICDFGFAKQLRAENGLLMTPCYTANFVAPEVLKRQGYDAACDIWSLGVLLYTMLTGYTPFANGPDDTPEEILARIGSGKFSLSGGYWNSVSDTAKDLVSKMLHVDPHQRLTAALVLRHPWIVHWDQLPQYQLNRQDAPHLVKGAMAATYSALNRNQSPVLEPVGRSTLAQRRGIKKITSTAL
Sequence of Serine/threonine-protein kinase 17B (Homo sapiens) (O94768 whole entry): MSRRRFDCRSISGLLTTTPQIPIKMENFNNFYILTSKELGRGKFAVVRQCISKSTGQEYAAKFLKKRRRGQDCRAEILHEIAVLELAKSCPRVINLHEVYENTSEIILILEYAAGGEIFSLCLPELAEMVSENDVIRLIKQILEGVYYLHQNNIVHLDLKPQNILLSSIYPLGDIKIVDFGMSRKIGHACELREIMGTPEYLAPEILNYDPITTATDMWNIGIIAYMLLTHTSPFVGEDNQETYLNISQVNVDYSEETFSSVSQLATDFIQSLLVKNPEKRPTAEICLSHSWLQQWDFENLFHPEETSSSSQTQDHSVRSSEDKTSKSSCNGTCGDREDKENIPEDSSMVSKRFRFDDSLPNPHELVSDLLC
Sequence of MAP kinase-interacting serine/threonine-protein kinase 1 (Homo sapiens) (Q9BUB5 whole entry, looked up, the tested form may be a part): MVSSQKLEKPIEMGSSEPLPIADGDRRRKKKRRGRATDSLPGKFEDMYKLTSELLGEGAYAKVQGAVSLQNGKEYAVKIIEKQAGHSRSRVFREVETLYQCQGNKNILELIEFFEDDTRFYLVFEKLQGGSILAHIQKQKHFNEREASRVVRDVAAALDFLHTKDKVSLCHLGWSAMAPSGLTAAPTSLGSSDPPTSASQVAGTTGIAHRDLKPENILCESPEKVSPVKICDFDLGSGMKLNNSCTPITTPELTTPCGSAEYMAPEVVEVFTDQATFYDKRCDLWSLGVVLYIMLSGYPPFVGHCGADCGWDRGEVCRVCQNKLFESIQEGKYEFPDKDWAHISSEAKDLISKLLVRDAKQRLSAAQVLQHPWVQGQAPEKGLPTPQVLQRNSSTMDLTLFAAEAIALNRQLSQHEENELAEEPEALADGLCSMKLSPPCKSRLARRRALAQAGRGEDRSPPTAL
Sequence of Serine/threonine-protein kinase 17A (Homo sapiens) (Q9UEE5 whole entry): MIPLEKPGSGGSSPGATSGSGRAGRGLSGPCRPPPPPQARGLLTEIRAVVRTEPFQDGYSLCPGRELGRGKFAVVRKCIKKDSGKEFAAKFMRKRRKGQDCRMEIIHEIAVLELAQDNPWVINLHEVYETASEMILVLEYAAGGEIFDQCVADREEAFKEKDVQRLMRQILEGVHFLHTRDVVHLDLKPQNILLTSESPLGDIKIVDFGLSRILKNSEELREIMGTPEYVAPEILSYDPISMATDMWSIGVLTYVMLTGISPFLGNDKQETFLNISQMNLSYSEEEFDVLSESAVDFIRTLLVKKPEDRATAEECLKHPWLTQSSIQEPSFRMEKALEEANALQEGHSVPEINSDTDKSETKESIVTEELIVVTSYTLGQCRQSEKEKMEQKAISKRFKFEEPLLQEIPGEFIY

In the case of `CNc1cc(Oc2cc(C(=O)Nc3cc(N4CCN(C)CC4)cc(C(F)(F)F)c3)ccc2C)ncn1`, the inhibition [1] is reported as -5.8%, the inhibition [2] is reported as -2.8% and the inhibition [3] is reported as 11.7%.

For `CCN1CCN(Cc2ccc(NC(=O)c3ccc(C)c(/C=C/c4cnc5[nH]ccc5c4OC)c3)cc2C(F)(F)F)CC1`, the inhibition [4] was 0.35%, the inhibition [5] was 21.3% and the residual activity [6] was 16%.

With `CCN1CCN(Cc2ccc(NC(=O)c3ccc(C)c(Oc4ccnc5[nH]ccc45)c3)cc2C(F)(F)F)CC1` the inhibition [7] was “inactive”, the inhibition [8] was “inactive” and the inhibition [9] was “inactive”. For the same compound, the inhibition [10] was “inactive” and the inhibition [11] was 5.8%.
